Test results reported in US7462636B2, “Broadspectrum substituted benzisoxazole sulfonamide HIV protease inhibitors” (priority 2002, dated 2008).
Read-outs that look alike come from different tables or passages of the source.

Assays:
HIV-1 strain LAI = assay: Cellular anti-HIV assay (MT4 cells, MTT), wild type strain; type: cell-based
Experimental: The compounds of the present invention were examined for anti-viral activity in a cellular assay. […] The cellular assay was performed according to the following procedure.
(§1) HIV- or mock-infected MT4 cells were incubated for five days in the presence of various concentrations of the inhibitor. At the end of the incubation period, all HIV-infected cells have been killed by the replicating virus in the control cultures in the absence of any inhibitor. Cell viability is measured by measuring the concentration of MTT, a yellow, water soluble tetrazolium dye that is converted to a purple, water insoluble formazan in the mitochondria of living cells only. Upon solubilization of the resulting formazan crystals with isopropanol, the absorbance of the solution is monitored at 540 nm. The values correlate directly to the number of living cells remaining in the culture at the completion of the five day incubation. The inhibitory activity of the compound was monitored on the virus-infected cells and was expressed as EC50 and EC90. […] Wherever results are reported as e.g. pEC50 or pCC50 values, the result is expressed as the negative logarithm of the result expressed as EC50 or CC50 respectively.
(§2) As a measure of the broad spectrum activity of the present compounds, the fold resistance (FR), defined as FR=EC50(mutant strain)/EC50(HIV-1 strain LAI), was determined.

[1] = test system: HIV strain G (protease mutant); assay: Antiviral spectrum, mutant HIV strain G; type: cell-based; settings: FR=EC50(mutant strain)/EC50(HIV-1 strain LAI); calculated averages
Experimental: as §1, with “EC90. These values represent the amount of the compound required to protect 50% and 90%, respectively, of the cells from the cytopathogenic effect of the virus.” for “EC90.”, “respectively. […]” for “respectively.”
as §2

[2] = test system: HIV strain E (protease mutant); assay: Antiviral spectrum, mutant HIV strain E; type: cell-based; settings: FR=EC50(mutant strain)/EC50(HIV-1 strain LAI); calculated averages
Experimental: as §1, with “EC90. These values represent the amount of the compound required to protect 50% and 90%, respectively, of the cells from the cytopathogenic effect of the virus.” for “EC90.”, “respectively. […]” for “respectively.”
as §2

[3] = test system: HIV strain C (protease mutant); assay: Antiviral spectrum, mutant HIV strain C; type: cell-based; settings: FR=EC50(mutant strain)/EC50(HIV-1 strain LAI); calculated averages
Experimental: as §1, with “EC90. These values represent the amount of the compound required to protect 50% and 90%, respectively, of the cells from the cytopathogenic effect of the virus.” for “EC90.”, “respectively. […]” for “respectively.”
as §2

[4] = test system: HIV strain D (protease mutant); assay: Antiviral spectrum, mutant HIV strain D; type: cell-based; settings: FR=EC50(mutant strain)/EC50(HIV-1 strain LAI); calculated averages
Experimental: as §1, with “EC90. These values represent the amount of the compound required to protect 50% and 90%, respectively, of the cells from the cytopathogenic effect of the virus.” for “EC90.”, “respectively. […]” for “respectively.”
as §2

[5] = test system: HIV strain B (protease mutant); assay: Antiviral spectrum, mutant HIV strain B; type: cell-based; settings: FR=EC50(mutant strain)/EC50(HIV-1 strain LAI); calculated averages
Experimental: as §1, with “EC90. These values represent the amount of the compound required to protect 50% and 90%, respectively, of the cells from the cytopathogenic effect of the virus.” for “EC90.”, “respectively. […]” for “respectively.”
as §2

[6] = test system: HIV strain F (protease mutant); assay: Antiviral spectrum, mutant HIV strain F; type: cell-based; settings: FR=EC50(mutant strain)/EC50(HIV-1 strain LAI); calculated averages
Experimental: as §1, with “EC90. These values represent the amount of the compound required to protect 50% and 90%, respectively, of the cells from the cytopathogenic effect of the virus.” for “EC90.”, “respectively. […]” for “respectively.”
as §2

[7] = test system: HIV strain A (protease mutant); assay: Antiviral spectrum, mutant HIV strain A; type: cell-based; settings: FR=EC50(mutant strain)/EC50(HIV-1 strain LAI); calculated averages
Experimental: as §1, with “EC90. These values represent the amount of the compound required to protect 50% and 90%, respectively, of the cells from the cytopathogenic effect of the virus.” for “EC90.”, “respectively. […]” for “respectively.”
as §2

[8] = Oral availability in the rat (serum concentration, LC-MS); type: in vivo; settings: both sexes, 10 mg/kg
Experimental: The oral availability of a selected compound was evaluated in a standard set of kinetic experiments, primarily in male and female rats and secondarily in male and female dogs. The compound was formulated as a 20 mg/ml solution or suspension in DMSO, PEG400 or cyclodextin 40% (CD40%) in water. For most experiments in the rat, three dosing groups were formed: 1/single intraperitoneal dose at 20 mg/kg using the DMSO formulation; 2/single oral dose at 20 mg/kg using the PEG400 formulation and 3/single oral dose at 20 mg/kg using the cyclodextrin formulation. In the dog, only the oral route of administration was used. Blood was sampled at regular time intervals after dosing and drug concentrations in the serum were determined using a LC-MS bioanalytical method. Serum concentrations were expressed in […] after normalization to 10 mg/kg. Below, the serum concentration at 30 minutes and at 3 hours is listed as these values reflect the extent of absorption (30′) and the speed of elimination (180′). The oral bioavailability in the rat was examined using DMSO and PEG formulations (cfr supra). The serum concentration following administration of 10 mg/kg of compound 1 was 10.2 ng/ml at 30 min (DMSO) and 22.2 ng/ml (PEG). The intraperitoneal absorption of a dose of 10 mg/kg (DMSO formulation) was 2076 ng/ml 30 minutes (min) following administration and 208 ng/ml 180 min following administration.

[9] = Toxicity on mock-infected MT4 cells (MTT); type: cell-based; settings: human
Experimental: as §1, with “EC90. These values represent the amount of the compound required to protect 50% and 90%, respectively, of the cells from the cytopathogenic effect of the virus.” for “EC90.”
as §2

Compound | WT (pEC50) (HIV-1 strain LAI; calculated averages) | FR towards mutant G [1] | FR towards mutant E [2] | FR towards mutant C [3] | FR towards mutant D [4] | FR towards mutant B [5] | FR towards mutant F [6] | FR towards mutant A [7] | concentration at 30 min ([8]; ip, intraperitoneal, DMSO formulation, 30 min following administration, read-out: intraperitoneal absorption (serum concentration)) [ng/mL] | concentration at 180 min ([8]; ip, intraperitoneal, DMSO formulation, 180 min following administration, read-out: intraperitoneal absorption (serum concentration)) [ng/mL] | concentration at 30 min ([8]; po, oral, DMSO formulation, at 30 min, read-out: serum concentration) [ng/mL] | concentration at 30 min ([8]; po, oral, PEG formulation, read-out: serum concentration) [ng/mL] | EC50 (HIV-1 strain LAI; Human immunodeficiency virus 1, calculated averages, read-out: WT (pEC50) (converted)) [nM] | CC50 at 5 days [9] [nM]
5-Methyl-isoxazole-4-carboxylic acid{3-[(3-amino-benzo[d]isoxazole-5-sulfonyl)-isobutyl-amino]-1-benzyl-2-hydroxy-propyl}-amide [Compound 6] | 6.2 | 16 | 7.2 | 5.5 | 16 | 5.6 | 16 | 16 | – | – | – | – | – | –
CC(C)CN(C[C@@H](O)[C@H](Cc1ccccc1)NC(=O)O[C@H]1CO[C@H]2OCC[C@H]21)S(=O)(=O)c1ccc2onc(N)c2c1 [Compound 1, {3-[(3-Amino-benzo[d]isoxazole-5-sulfonyl)-isobutyl-amino]-1-benzyl-2-hydroxy-propyl}-carbamic acid hexahydro-furo[2,3-b]furan-3-yl ester] | – | 6.9 | 0.30 | 0.49 | 0.35 | 0.78 | 0.85 | 0.63 | 2080 | 208 | 10.2 | 22.2 | 7.94 | > 100000
